# In patent US20120196899A1, “METHODS AND PRODUCTS FOR TREATING INFLAMMATION” (Rock Creek Pharmaceuticals, Inc., priority 2010, published 2012):
# Columns and labels:
# autoimmune thyroiditis = assay: Autoimmune thyroiditis in thyroglobulin-immunized mice (Example 16B); format: in vivo, CBA/J female mice; conditions: 0.05 mg/ml in drinking water
# Protocol: In another experiment, eighteen CBA/J female mice were immunized with mouse thyroglobulin, emulsified in complete Freund's adjuvant, on day 0 and day 7. One group of mice (n=10) drank regular water. […] Mice were sacrificed 21 days after the first immunization to collect the thyroid gland and the blood. The thyroid was analyzed for the presence of infiltrating mononuclear cells. The blood was analyzed for the levels of antibodies against thyroglobulin.
# [1] = test system: LPS-induced IL-1β release; assay: LPS-induced IL-1β release in whole human blood; format: cell-based
# Protocol: Whole human blood was treated with LPS to stimulate inflammatory responses. […] The inflammatory molecule IL-1β was measured after 16 hours.
compound,measurement,setting,value
"C1=CCC(c2cccnc2)NC1 (racemic) [Anatabine, 1,2,3,6-tetrahydro-[2,3′]bipyridinyl]",levels of thyroglobulin antibodies,autoimmune thyroiditis; day 21,had no effect on the levels of thyroglobulin antibodies
same,thyroiditis frequency and severity,"autoimmune thyroiditis; day 21, p=0.023",developed thyroiditis less frequently and of lower severity
same,IL-1β production over time,"[1]; LPS-stimulated human blood, repeated measurement (Example 15)",rapid and continuous effect on the suppression
same,accumulation of IL-1β,"[1]; LPS-treated whole human blood, 16 hours (Example 13)",reduced accumulation of IL-1β
same,accumulation of IL-1β over dose response,"[1]; LPS-treated whole human blood, 16 hours (Example 14)",reduced accumulation of IL-1β
